Experimental data reported in paper PMC12867150, “A fungi-derived cyclic peptide enhances Th9-mediated antitumor immunity by targeting ZAP70 and SREBP1” (The Journal of Clinical Investigation, 2025).
Several values for one entry are separate records, joined by “and”; a condition that tells them apart may be missing. Equal entries are not always repeated. Structures can show the parent of a compound that is named as a salt.

Assays:
Th9 cells [1] = experiment: IL-9+ Th9 cells with fatostatin (Figure 7A); assay type: cell-based, mouse; design: IL-9 expression in Th9 cells: unit not given here; conditions: for IL-9 expression in Th9 cells: Figure 7A, individual replicates, one per column (n = 4); for IL-9 production: fatostatin 5 μM, alone or with EpA 10 μM, result in words
Text: (B) Quantitative PCR analysis of Il9 mRNA expression in cells treated as in A (n = 3). (C–F) Flow cytometric analysis of TNF-α production (C), CD69 expression (D), PD-1 expression (E), and mitochondrial membrane potential measured by MitoTracker staining (F) in Th9 cells treated with the indicated conditions (n = 4 for C–E; n = 3 for F). […] Cluster 2 includes genes related to calcium signaling, glycolysis, oxidative phosphorylation, and ERK signaling; cluster 6 includes genes associated with lipid biosynthesis. […] Statistical significance was determined using 1-way ANOVA followed by Tukey’s post hoc test (A–F and H–J). Data are presented as mean ± SEM (A–F and H–J). **P < 0.01, ***P < 0.001, ****P < 0.0001. […] It is left out because it is the vehicle control, not a substance.
T cell polarization was initiated under plate-bound anti-CD3 (2 μg/mL, clone 17A2, BioXCell, catalog BE0002) and soluble anti-CD28 (1 μg/mL, clone 37.51, BioXCell, catalog BE0015-1) stimulation, with the addition of cytokines and neutralizing antibodies specific to each subset. For Th9 cells, these included IL-4 (10 ng/mL, Peprotech, catalog 400-04), TGF-β (1 ng/mL, EPOTO Biotech, catalog HF-2021), anti–IL-12 (5 μg/mL, clone C17.8, BioXCell, catalog BE0051), and anti–IFN-γ (10 μg/mL, clone XMG1.2, BioXCell, catalog BE0055); for Th1 cells, these included IL-12 (10 ng/mL, GenScript, catalog Z03211-50) and anti–IL-4 (5 μg/mL, clone 11B11, BioXCell, catalog BE0045); for Th2 cells, these included IL-4 (50 ng/mL), anti–IFN-γ (20 μg /mL), anti–IL-12 (5 μg/mL), Th17 cells: IL-6 (20 ng/mL, EPOTO Biotech, catalog MF-1006), TGF-β (1 ng/mL), IL-1β (10 ng/mL, Peprotech, catalog AF-211-11B), anti–IFN-γ (10 μg/mL), anti–IL-12 (5 μg/mL), and anti–IL-4 (5 μg/mL); and for Tregs, these included TGF-β (3 ng/mL). After 3 days of initial culture, cells were either collected for downstream assays or continued in extended culture with refreshed cytokines to maintain lineage commitment.
[…] Dead cells were detected using Fixable Viability Dye eFluor 780 (eBioscience, catalog 65-0865).

[2] = tested on: mitochondria of human Th9 cells; experiment: Mitochondrial membrane potential / mass of human Th9 cells (Figure 8D, S9B); assay type: cell-based; conditions: for mitochondrial mass using Mito Tracker in human Th9 cells: flow cytometry, Supplemental Figure 9B
Protocol: For Th9 polarization, cultures were supplemented with IL-4 (10 ng/mL, PeproTech, catalog AF-200-04), TGF-β (1 ng/mL), and neutralizing anti–IFN-γ monoclonal antibody (10 μg/mL, clone B27, BioXcell, catalog BE0245). After 3 days of initial culture, cells were either collected for downstream assays or continued in extended culture with refreshed cytokines to maintain lineage commitment without antibodies. Th9 cells were collected at days 4, 5, and 6 for subsequent in vitro assays. For adoptive transfer studies, day 4–cultured Th9 cells were washed and prepared for intravenous injection.
Mitochondrial mass and membrane potential were assessed using MitoTracker™ Deep Red FM (Thermo Fisher Scientific, catalog M22426) and TMRM (tetramethylrhodamine methyl ester; Macklin, catalog T868125), respectively, following the manufacturers’ protocols. Cells were incubated with the respective dyes, washed, and subjected to flow cytometry or fluorescence microscopy analysis. For ultrastructural assessment, mitochondrial number and diameter were quantified from high-resolution transmission electron microscopy (TEM) images using ImageJ software.

Th9 cells [3] = experiment: IL-9+ Th9 cells transduced with MIGR1 or SREBP1 vector (S8K-L); assay type: cell-based, mouse; conditions: for IL-9 gate number: representative flow plot, Figure S8K; for IL-9 expression of Th9 cells: Supplemental Figure 8L
Protocol: For murine T cell transduction, MIGR1-based retroviral vector encoding Srebf1 was used. HEK293T cells were transfected with these constructs using Lipofectamine 3000 (Thermo Fisher Scientific) to produce viral particles. Supernatants were collected between 48 and 72 hours after transfection, filtered through a 0.45 μm membrane, and stored at –80°C. Naive murine CD4^+ T cells were activated with plate-bound anti-CD3 (2 μg/mL, clone 17A2, BioXCell) and soluble anti-CD28 (1 μg/mL, clone 37.51, BioXCell) stimulation in the presence of subset-specific polarizing cytokines and then transduced with viral supernatant supplemented with polybrene (10 μg/mL). […]
Ctrl MIGR1EpACtrl SREBP1EpA
Figure S8. […]
(K and L) Flow-cytometric analysis of IL-9 expression in Th9 cells transduced with either control (MIGR1) or SREBP1- […]
overexpressing vectors, with or without EpA treatment, showing representative plots (K) and quantification of IL-9⁺ cells (L) (n = 3). […]
(n = 3). Statistical analysis was performed using one-way ANOVA followed by Tukey’s post hoc test (G and H, J, L, N). ns, not significant. Repeated data are presented as mean ± SEM. *p < 0.05, **p < 0.01, ***p < 0.001, ****p < 0.0001.

Compound | IL-9 expression in Th9 cells (Th9 cells [1]) | IL-9 expression in Th9 cells (Th9 cells [1]; single agent) | IL-9 production (Th9 cells [1]) | mitochondrial mass using Mito Tracker in human Th9 cells ([2]; replicate 1) | mitochondrial mass using Mito Tracker in human Th9 cells ([2]; replicate 2) | mitochondrial mass using Mito Tracker in human Th9 cells ([2]; replicate 3) | mitochondrial membrane potential, human Th9 ([2]; result in words) | IL-9 gate number (Th9 cells [3]; MIGR1 control vector) | IL-9 expression of Th9 cells (Th9 cells [3]; MigR1, replicate 1) | IL-9 expression of Th9 cells (Th9 cells [3]; MigR1, replicate 2) | IL-9 expression of Th9 cells (Th9 cells [3]; MigR1, replicate 3) | IL-9 gate number (Th9 cells [3]; SREBP1-overexpressing vector) | IL-9 expression of Th9 cells (Th9 cells [3]; SREBP1, replicate 1) | IL-9 expression of Th9 cells (Th9 cells [3]; SREBP1, replicate 2) | IL-9 expression of Th9 cells (Th9 cells [3]; SREBP1, replicate 3) | EpA-induced IL-9 increase (protein) upon SREBP1 overexpression (Th9 cells [3]; result in words) | mitochondrial membrane potential, human EpA-Th9 ([2]; with fatostatin, result in words)
anteiso-C15 Leu7 surfactin [EpA] | 74.4 and 75.9 and 77.3 and 78.9 | 46.6 and 46.1 and 47.5 and 45.4 | further enhanced when combined with EpA | 2.888 ×10^5 | 2.867 ×10^5 | 2.9 ×10^5 | increased mitochondrial membrane potential | 69.8 | 69.8 | 68.8 | 68.6 | 50.3 | 50.3 | 48.8 | 60.7 | markedly suppressed | –
CCCc1cc(-c2nc(-c3ccc(C)cc3)cs2)ccn1 [fatostatin, fatostatin hydrobromide, reference compound] | – | 25.4 and 26.8 and 28.6 and 27.5 | significantly upregulated IL-9 production | – | – | – | – | – | – | – | – | – | – | – | – | – | further augmented
